Laboratory results taken from patent US4440757A, “Pharmaceutical composition comprising derivative of aminobenzoic acid for regulating prostaglandin” (priority 1978, dated 1984).

Tests used:
[1] = system: male Donryu rats; experiment: Stress ulcer of the stomach and 6-keto PGF1α; format: in vivo; details: 1 g/kg p.o.; for Ulcer-coefficient: 7 hours stress, control 100; for Amount of 6-keto PGF1α: plasma, control 3.3
Procedure: Three groups of male Donryu rats of body weight of 220 to 250 g after 23.5 hours of fasting were administered orally with the present substance (each of Specimen Nos. 4, 7 and 8) at a rate of one gram/kg dissolved in 8 ml (per 200 g body weight) of an aqueous physiological saline solution.
These three groups of rats and another group of rats equally fasted for 23.5 hours and then administered with only the aqueous physiological saline solution were put into the stresscage, and soaked in water at a temperature of 23° C. to the depth of their breast to load the stress on the rats.
After 7 hours of soaking, the rats were pulled out from water and were immediately sacrificed to collect the whole blood, and their stomachs were extirpated. The plasma fraction prepared from the blood was extracted with ether and the etherextract was separated by thin layer chromatography. The separated extract, after converted to the respective methyloximesilyl derivatives, was subjected to gaschromatography-mass spectorography to determine the content of 6-keto PGF1α.
An aqueous 1% solution of formaldehyde was injected into the extirpated stomach and after 10 min of injection, the stomach was cut to be opened at the greater curvature side to examine the mucous membrane of the gastric body. The longer span of each erosion in the mucous membrane of a rat, if any, was measured microscopically, and its sum expressed by millimeter was taken as an ulcer coefficient of the rat.

[2] = system: male Sprague-Dowley rats; experiment: Foot-oedema induced by carrageenin and PGE1; format: in vivo; details: 1000 mg/kg p.o.; with carrageenin + PGE1; 60 min after carrageenin
Procedure: The three groups of male Sprague-Dowley rats of total six groups, the respective present substances, Specimens Nos. 4, 7 and 8 were administered forcibly by oral route at a rate of 1000 mg/kg, the other three groups of the same kind of rats being administered nothing at this time.
After 60 min of the administration, 0.1 ml of an aqueous solution of carrageenin (1 mg) and PGE1 (0.1 μg) was injected onto the hind paw of the four groups of the rats including the three groups administered with the present substance. To one group of remaining two groups not administered with the present substance, 0.1 ml of an aqueous solution containing only carrageenin at 1% was injected, and to the other one group not administered with the present substance, an aqueous solution containing only PGE1 was injected.
The volume of the thus swollen foot of the groups of the thus treated rats was measured by the water-displacement method, and the results are shown in Table 17 by the increment of the volume of foot as compared to the volume of foot before the treatment as percentage.

[3] = system: male Sprague-Dowley rats; experiment: Leakage of dye-staff after skin stimulation with histamine and PGE1; format: in vivo; details: 1000 mg/kg p.o.; with histamine + PGE1
Procedure: To the three groups of male Sprague-Dowley rats of the total six groups, the respective present substances (Specimens Nos. 4, 7 and 8) were forcibly administered by oral route at the rate of 1000 mg/kg, the other three groups being administered nothing at this time. After 60 min of the administration, a mixture of PGE1 (2.5×10^-11 mol/animal) and histamine (2×10^-8 mol/animal) was intracutaneously injected under light […] into the shaved skin of an abdominal part of four groups of the rats including three groups administered with the present substance.

[4] = system: female spontaneously hypertensive rats (SHR); experiment: Diuretic effect and 6-keto PGF1α in blood; format: in vivo, rat (SHR); details: for Level of 6-keto PGF1α in blood: control 3.0
Procedure: Groups of female spontaneously hypertensive rats (SHR) kept in fasting for 12 hours and abstained from water for 2 hours were treated by forced oral administration of the present substance (each of Specimens Nos. 4, 7 and 8) at respective rates of 1 and 5 g/kg dissolved in 8 ml (per 200 g b.w.) of an aqueous physiological saline solution, control group being administered only with the aqueous physiological saline solution in an amount of 8 ml/200 g b.w.
The amount of excreted urine of the rats was measured every hour from one hour after the administration for 6 times, and the percentages of the volume of urine to the volume of the aqueous physiological saline solution containing the present substance formerly administered (8 ml per 200 g b.w.) are shown in Table 19.
In the next place, after 6 hours of the administration, all animals were sacrificed to collect the whole blood for obtaining its plasma fraction. The ether-extract of the plasma fraction was separated by thin-layer chromatography and after converting the thus separated substances into methyloximesilyl derivatives, the variation of 6 keto PGF1α was examined by gas-chromatography-mass-spectrography.

[5] = system: male SHR rats; experiment: Effect of aspirin on the hypotensive action; format: in vivo, rat (SHR); details: 100 mg/kg p.o., after 6 hours; for Alteration of blood pressure, Case (b): with aspirin 200 mg/kg before and after; for Alteration of blood pressure, Case (a): without aspirin
Procedure: It is known that PGs are produced from arachidonic acid and the conversion of arachidonic acid into PGG2 is mediated by cyclooxygenase. Also it is known that aspirin inactivates cyclooxygenase, and that the […] of PGs is completely stopped by the administration of aspirin to a mammal.
Accordingly, the following experiment was carried out: To groups of male SHR rats of 30 to 40 weeks after birth, (a) one of the present substance was forcibly administered orally at 100 mg/kg as a solution in distilled water or an aqueous suspension in 2% solution of carboxymethylcellulose or (b) aspirin was forcibly administered orally, before and after one hour of the administration of the present substance, at 200 mg/kg. The blood pressure of the thus treated rats was measured with the time passage.

[6] = system: Ehrlich cancer; experiment: Cancer proliferation and PGE in the cancer cells (Ehrlich); format: in vivo, C57BL/6 mouse; details: 100 mg/kg i.p. every other day, 14th day; for Weight of cancer: control 1.30; for Content of PGE in the cancer: control 1.77
Procedure: Following the same method as in Example 12, the anti-cancer action against transplanted Ehrlich cancer in C57BL/6 mouse, and the amount of PGE in the cancer cells in proliferation in the living body of the mouse were examined in the cases where each one compound of the present invention, Specimens Nos. 1, 2, 3, 4, 5, 6, 8, 9, 10 and 11 was intraperitoneally administered every other day from the next day of the transplantation in total 6 times at a dosage of 100 mg/kg.
The results of determination of the weight of cancer extirpated from the sacrificed mouse on 14th day of the transplantation of the cancer cells, 1×10^6 in number per animal, and content of PGE of the extirpated cancer are shown in the following Table 13: […]

[7] = 1 g/kg p.o., 2 hours, control 9
[8] = 1 g/kg p.o., 3 hours, control 22
[9] = 1 g/kg p.o., 4 hours, control 26
[10] = 1 g/kg p.o., 5 hours, control 28
[11] = 1 g/kg p.o., 6 hours, control 30
[12] = 5 g/kg p.o., 2 hours, control 9
[13] = 5 g/kg p.o., 3 hours, control 22
[14] = 5 g/kg p.o., 4 hours, control 26
[15] = 5 g/kg p.o., 5 hours, control 28
[16] = 5 g/kg p.o., 6 hours, control 30

| SMILES | Ulcer-coefficient [1] [%] | Amount of 6-keto PGF1α [1] [ng/mL] | Percentage increment of volume of foot [2] [%] | Absorbance at 620 nm (dye leakage) [3] | Volume of urine ([4]; 1 g/kg p.o., 1 hour, control 2) [%] | Volume of urine [4, 7] [%] | Volume of urine [4, 8] [%] | Volume of urine [4, 9] [%] | Volume of urine [4, 10] [%] | Level of 6-keto PGF1α in blood ([4]; 1 g/kg p.o., 6 hours) [ng/mL] | Volume of urine [4, 11] [%] | Volume of urine ([4]; 5 g/kg p.o., 1 hour, control 2) [%] | Volume of urine [4, 12] [%] | Volume of urine [4, 13] [%] | Volume of urine [4, 14] [%] | Volume of urine [4, 15] [%] | Volume of urine [4, 16] [%] | Alteration of blood pressure, Case (b) [5] [mmHg] | Alteration of blood pressure, Case (a) [5] [mmHg] | Weight of cancer [6] [g] | other results |
| --- | --- | --- | --- | --- | --- | --- | --- | --- | --- | --- | --- | --- | --- | --- | --- | --- | --- | --- | --- | --- | --- |
| O=C(O)c1ccc(NC2OC[C@@H](O)[C@H](O)[C@H]2O)cc1 (stereo partly drawn) [Specimen No. 7, Sodium p-aminobenzoate-N--D-xyloside] | 58 | 3.9 | 28.2 | 0.152 | 4 | 38 | 45 | 48 | 63 | 3.5 | 72 | 5 | 50 | 66 | 80 | 92 | 100 | 0 | -20 | 0.75 | Content of PGE in the cancer [6]: 3.98 ng/g |
| C[C@@H]1OC(Nc2ccc(C(=O)O)cc2)[C@H](O)[C@H](O)[C@H]1O (stereo partly drawn) [Specimen No. 8, Sodium p-aminobenzoate-N--L-rhamnoside] | 55 | 3.6 | 29.7 | 0.162 | 5 | 39 | 47 | 50 | 65 | 3.2 | 68 | 5 | 43 | 60 | 70 | 77 | 93 | 0 | -15 | 0.72 | Level of 6-keto PGF1α in blood ([4]; 5 g/kg p.o., 6 hours): 3.7 ng/mL; Content of PGE in the cancer [6]: 4.03 ng/g |
| O=C(O)c1ccc(NC2O[C@H](CO)[C@@H](O)[C@H](O)[C@@H]2O)cc1 (stereo partly drawn) [Specimen No. 4, Sodium p-aminobenzoate-N--D-mannoside] | 62 | 3.8 | 32.5 | 0.155 | 6 | 40 | 46 | 50 | 60 | 3.3 | 63 | 7 | 40 | 50 | 52 | 78 | 91 | -5 | -20 | 0.56 | Level of 6-keto PGF1α in blood ([4]; 5 g/kg p.o., 6 hours): 3.5 ng/mL; Content of PGE in the cancer [6]: 4.19 ng/g |
